pIC50: −log10 of the molar value. Results filed as inconclusive are left out.
Target: Virion infectivity factor (Human immunodeficiency virus type 1 group M subtype B (isolate BH10)) + Virion infectivity factor (Human immunodeficiency virus type 1 group M subtype B (isolate BRU/LAI)) + Virion infectivity factor (Human immunodeficiency virus type 1 group M subtype B (isolate PCV12)) + Virion infectivity factor (Human immunodeficiency virus type 1 group M subtype B (isolate HXB2)) + DNA dC->dU-editing enzyme APOBEC-3G (Homo sapiens) (UniProt P69720+P69721+P69722+P69723+Q9HC16)
Assay: inhibitors of Vif binding to APOBEC3G peptide, primary screen, biochemical, TR-FRET, GST-Vif 1-94, biotin-A3G peptide, dose response retest (AID 1117319);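 note: Vif residues 1-94 fused to GST binding biotinylated APOBEC3G peptide 110-148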

| SMILES | pIC50 |
| --- | --- |
| O=C1CCCC(O)=C1N=Nc1ccc(C(=O)O)cc1 | 5.57 |
| Cc1nc2c(=O)[nH]c(=S)[nH]c2[nH]c1=O | 4.29 |
| CC1COCC(C)N1C1=C(Cl)C(=O)c2ccccc2C1=O (stereo not given) | 4.96 |
| O=C(CSc1ccc(Cl)cc1)c1ccco1 | 4.96 |
| COc1ccc(-c2nc3oc4cc(OC)ccc4c(=O)c3c(=O)n2Cc2ccco2)cc1 | 4.01 |
| CCOC(=O)C1=C(N)n2c(s/c(=C/c3ccco3)c2=O)=C(C(=O)OC)C1c1ccco1 (stereo not given) | 5.66 |
| O=[N+]([O-])c1ccc(N/N=C/c2ccc(O)c(O)c2O)c(S(=O)(=O)N2CCOCC2)c1 | 5.94 |
| O=C1C2C3CCCC3=C3CCCC3C2C(=O)N1c1ccccc1 (stereo not given) | 5.46 |
| CCCCOc1ccccc1C1NC(=O)NC(C)=C1C(=O)OCc1ccco1 (stereo not given) | 4.24 |
| CC(=O)c1sc(C(=O)O)c(-c2ccco2)c1-c1ccco1 | 5.01 |
| CCN(CC)c1ccc(C=Nc2ccc(N(C)C)cc2)c(O)c1 | 4.45 |
| O=C1C(Cl)=C(N2CCOCC2)C(=O)N1c1ccccc1 | 5.66 |
| COc1cc(N(C)C)ccc1C=c1c2ccccc2n2c1cc(-c1ccccc1)[n+]2C | 5.27 |
| N#C/C(=C\c1ccc([N+](=O)[O-])o1)C(=O)Nc1ccc(F)cc1 | 5.12 |
| O=C(NCc1ccccn1)c1ccc2nc(-c3ccco3)c(-c3ccco3)nc2c1 | 6.35 |
| CNc1ccccc(C(=O)/C=C/c2ccccc2OC)c1=O | 5.41 |
| C=C(C)C(=O)Nc1cccc(C2=NOC3(C2)C[C@@H](C(N)=O)N(C(=O)CC(c2ccccc2)c2ccccc2)C3)c1 (stereo not given in full) | 5.51 |
| N#CC1=C(N)OC2=C(CCC/C2=C/c2ccoc2)C1c1ccoc1 (stereo not given) | 5.58 |
| CCOC(=O)c1ccc2c(c1)C1C=CCC1C(C(=O)O)N2 (stereo not given) | 5.90 |
| Cc1nc2cc(NC(=O)Nc3ccc(N4CCOCC4)cc3)ccc2n1C | 4.00 |
| O=C1CCC/C(=N\NC(=O)c2ccc(COc3cccc4cccnc34)cc2)C1 | 4.77 |
| COc1ccc2c(c1)CC1(CN2C)C(=O)NC(=O)N(c2ccc(C)cc2)C1=O (stereo not given) | 4.23 |
| COc1ccc(CN2C(=O)NC(=O)/C(=C/c3ccc([N+](=O)[O-])s3)C2=O)cc1 | 4.84 |
| N=C1S/C(=C\c2ccco2)C(=O)N1c1ccc2c(c1)OCO2 | 5.03 |
| COc1ccc(N2CCN(C(=O)COc3ccccc3)CC2)cc1 | 4.11 |
| O=C(N/N=C/C=C\c1ccco1)c1cccnc1 | 5.39 |
| O=C(NN1C(=O)/C(=C/C=C/c2ccco2)SC1=S)c1ccccc1O | 5.71 |
| Nc1ncnc2oc(-c3ccco3)c(-c3ccco3)c12 | 6.26 |

| SMILES | pIC50 |
| --- | --- |
| Oc1ccc(C[C@H]2NCCc3cc(O)c(O)cc32)cc1O | 5.01 |
| O=c1cc(-c2ccc(O)cc2)oc2c(O)c(O)c(O)c(O)c12 | 4.65 |
| O=C(c1cc2n(n1)C(C(F)(F)F)CC(c1ccco1)N2)N1CCc2ccccc2C1 (stereo not given) | 4.48 |
| CC1CCC/C(=C\Nc2ccc(C(=O)O)c(O)c2)C1=O (stereo not given) | 4.77 |
| O=C1S/C(=C\C=C\c2ccco2)C(=O)N1c1ccc(O)cc1 | 6.16 |
| O=c1[nH]nc(CNc2ccc(O)cc2)c2ccccc12 | 5.46 |
| O=C1c2c(O)ccc(O)c2C(=O)c2c(NCCNCCO)ccc(NCCNCCO)c21 | 5.10 |
| Cc1ccc(NC(=O)c2cc(-c3ccc(C)o3)nc3ccccc23)nc1 | 4.47 |
| O=C1CC(c2ccco2)CC(O)=C1C=Nc1cc(Cl)cc(Cl)c1 (stereo not given) | 5.39 |
| CCN(C(=O)CN1CCN(c2ccc(O)cc2)CC1)c1c(N)n(Cc2ccccc2)c(=O)[nH]c1=O | 4.79 |
| Cc1ccc(N/N=C/c2c(C)c(C#N)c(=O)n(C)c2O)cc1C | 4.04 |
| O=C(CCN1C(=O)/C(=C/c2cccs2)SC1=S)NC1=NCCS1 | 4.91 |
| O=C(N/N=C/c1ccc(O)c(O)c1O)/C(=C/c1ccc([N+](=O)[O-])cc1)NC(=O)c1ccccc1 | 6.06 |
| O=C(O)C(Cc1ccccc1)N1C(=O)/C(=C/C=C/c2ccco2)SC1=S (stereo not given) | 5.68 |
| CN1CCN(C2=C(Cl)C(=O)C(c3cnc(N4CCCCC4)s3)=C(Cl)C2=O)CC1 | 5.60 |
| O=C(N/N=C/C=C/c1ccco1)c1cccs1 | 5.15 |
| O=C(CSc1nc(-c2ccco2)cc(C(F)(F)F)n1)N1CCc2ccccc2C1 | 4.64 |
| Cc1ccc(NC(=O)CN(C)C(=O)c2cccc(-n3cccc3)c2)cc1 | 5.34 |
| COc1cc(OC)c2c(c1O)OC(c1ccccc1)CC2=O (stereo not given) | 5.32 |
| O=C1N=C(N2CCN(c3ccccc3)CC2)S/C1=C\c1ccco1 | 5.37 |
| CCN(C(=O)c1coc(=O)c(Br)c1)c1ccc2c(c1)OCO2 | 5.97 |
| COC(=O)C(C)Sc1nnc(Cc2cc(=O)[nH]c(=O)[nH]2)n1-c1cc(C)ccc1C (stereo not given) | 4.02 |
| CCOC(=O)c1cc2cc(F)ccc2nc1C | 5.78 |
| NC1=NC(=O)/C(=C\c2ccco2)S1 | 5.51 |
| CCc1noc(N)c1C(=O)Nc1ccc(F)c(Cl)c1 | 4.13 |
| CN(C)c1ccc(O)c2c1CC1CC3[C@@H](N(C)C)C(=O)C(C(N)=O)=C(O)[C@]3(O)C(=O)C1=C2O (stereo not given in full) | 5.97 |
| COc1ccc2[nH]c3c4c(ccc3c2c1)C(=O)C=CC4=O | 5.85 |

From PubChem BioAssay AID1117319 (Southern Research Institute, 2015)
